Reference: US9315487B2, “Tetrahydroquinoline derivatives useful as bromodomain inhibitors” (GlaxoSmithKline LLC, priority 2011, dated 2016)
Several values for one entry are separate records, joined by “and”; a condition that tells them apart may be missing. Equal entries are not always repeated.

Columns and labels:
Bromodomain BRD2 = molecular target: T1, Bromodomain BRD2 (Homo sapiens, UniProt P25440); test: Time Resolved Fluorescence Resonance Energy Transfer (TR-FRET) assay, BRD2; type: binding; conditions: BRD2 (1-473), acetylated histone peptide
T1 construct: BRD2 (1-473); made in house; host or cells: E. coli (pET15b vector)
Experimental: (§1) Time Resolved Fluorescence Resonance […] Transfer (TR-FRET) Assay
(§2) The binding of the compounds of formula (I) to Bromodomains BRD2, BRD3 and BRD4 was assessed using a time resolved fluorescent resonance energy transfer binding assay, that measures the binding of an acetylated histone peptide to the bromodomain protein.
(§3) The bromodomain protein, histone peptide and a variable concentration of test compound are incubated together to reach thermodynamic equilibrium.
(§4) The protected peptide was assembled on a solid-phase synthesiser using preloaded Wang resin and utilising standard Fmoc synthesis protocols. The C-terminal lysine was protected by a hyper acid-labile group allowing for its selective removal at the end of the assembly and attachment of the biotin. The crude peptide was obtained after cleavage from the resin with a mixture of trifluoroacetic acid (TFA), triisopropylsilane and water (95:2.5:2.5) for 3 h at room temperature and was then purified using a C18 reverse-phase column utilising a 0.1% TFA-buffered water/acetonitrile gradient. The resulting fractions were analysed and fractions which were >95% pure by analytical HPLC and giving the correct mw (by MALDiTOF mass spectroscopy) were pooled and freeze dried. The final material was analysed by HPLC to confirm purity.
(§5) Recombinant Human Bromodomains (BRD2 (1-473), BRD3 (1-435) and BRD4 (1-477)) were expressed in E. coli cells (in pET15b vector) with a six-His tag at the N-terminal. The His-tagged Bromodomain was extracted from E. coli cells using sonication and purified using a nickel sepharose 6FF column, the proteins were washed and then eluted with 50 mM Tris-Hcl pH8.0. 300 mM NaCl, 1 mM β-mercaptoethanol and 20 mM Imidazole. Further purification was performed by affinity chromatography on a HisTRAP HP column, eluting with a linear 0-500 mM […] gradient, over 20 column volumes. Final purification was completed by Superdex 200 prep grade size exclusion column. Purified protein was stored at −80 C in 20 mM HEPES pH 7.5 and 100 mM NaCl. Protein identity was confirmed by peptide mass fingerprinting and predicted molecular weight confirmed by mass spectrometry.
(§6) Protocol for Bromodomain BRD2, 3 and 4 Assays:
(§7) All assay components were dissolved in buffer composition of 50 mM HEPES pH7.4, 50 mM NaCl and 0.5 mM CHAPS. The final concentration of bromodomain proteins were 100 nM and the histone peptide was 300 nM, these components are premixed and allowed to equilibrate for 1 hour in the dark. 8 μl of this reaction mixture was added to all wells containing 50 nl of various concentrations of test compound or DMSO vehicle (0.5% final) in Greiner 384 well black low volume microtitre plates and incubated in dark for 60 mins at room temperature. […] detection mixture containing anti-6his XL665 labeled antibody and streptavidin labeled with europium cryptate was added to all wells and a further dark incubation of at least 30 mins was performed. Plates were then read on the Envision platereader, (λex=317 nm, donor λEM=615 nm; acceptor λEM=665 nm; Dichroic LANCE dual). Time resolved fluorescent intensity measurements were made at both emission wavelengths and the ratio of acceptor/donor was calculated and used for data analysis. All data was normalized to the mean of 16 high and 16 low control wells on each plate. A four parameter curve fit of the following form was then applied: y=a+((b−a)/(1+(10^x/10^c)^d)
(§8) Where ‘a’ is the minimum, ‘b’ is the Hill slope, ‘c’ is the pIC50 and ‘d’ is the maximum.

Bromodomain BRD3 = molecular target: T2, Bromodomain BRD3 (Homo sapiens, UniProt Q15059); test: Time Resolved Fluorescence Resonance Energy Transfer (TR-FRET) assay, BRD3; type: binding; conditions: BRD3 (1-435), acetylated histone peptide
T2 construct: BRD3 (1-435); made in house; host or cells: E. coli (pET15b vector)
Experimental: as §1, §2, §3, §4, §5, §6, §7, §8

Bromodomain BRD4 = molecular target: T3, Bromodomain BRD4 (Homo sapiens, UniProt O60885); test: Time Resolved Fluorescence Resonance Energy Transfer (TR-FRET) assay, BRD4; type: binding; conditions: BRD4 (1-477), acetylated histone peptide
T3 construct: BRD4 (1-477); made in house; host or cells: E. coli (pET15b vector)
Experimental: as §1, §2, §3, §4, §5, §6, §7, §8

[1] = system: LPS induced IL-6 secretion from whole blood; test: Measurement of LPS induced IL-6 secretion from whole blood; type: cell-based; conditions: 24 h, LPS 200 ng/ml, IL-6 by immunoassay
Experimental: Measurement of LPS Induced IL-6 Secretion from Whole Blood
Activation of monocytic cells by agonists of toll-like receptors such as bacterial lipopolysaccharide (LPS) results in production of key inflammatory mediators including IL-6. Such pathways are widely considered to be central to the pathophysiology of a range of auto-immune and inflammatory disorders.
Compounds to be tested are diluted to give a range of appropriate concentrations of which 1 μl of the diluted stocks is added to a 96 well plate. Following addition of whole blood (130 μl) the plates are incubated at 37 degrees (5% CO2) for 30 min before the addition of 10 μl of 2.8 ug/ml LPS, diluted in complete RPMI 1640 (final concentration=200 ng/ml), to give a total volume of 140 ul per well. After further incubation for 24 hours at 37 degrees, 140 μl of PBS are added to each well. The plates are sealed, shaken for 10 minutes and then centrifuged (2500 rpm×10 min). 100 μl of the supernatant are removed and IL-6 levels assayed by immunoassay (typically by MesoScale Discovery technology) either immediately or following storage at −20 degrees. Concentration response curves for each compound was generated from the data and an IC50 value was calculated

[2] = molecular target: T4, Bromodomain BRD2, BRD3 and BRD4; test: Fluorescence Anisotropy Binding Assay; parameters: species or system Human; conditions: tested in one or more of the BRD2, BRD3, BRD4 fluorescence anisotropy assays
T4 construct: fused on or other part: six-His tag at the N-terminus
From the text: Fluorescence Anisotropy Binding Assay
The binding of the compounds of formula (I) to Bromodomain BRD2, BRD3 and BRD4 may be assessed using a Fluorescence Anisotropy Binding Assay.
All data was normalized to the mean of 16 high and 16 low control wells on each plate. A four parameter curve fit of the following form was then applied: y=a+((b−a)/(1+(10^x/10^c)^d)
Where ‘a’ is the minimum, ‘b’ is the Hill slope, ‘c’ is the pIC50 and ‘d’ or is the maximum.
Recombinant Human Bromodomains (Bromodomain BRD2 (1-473), Bromodomain BRD3 (1-435) and Bromodomain BRD4 (1-477)) were expressed in E. coli cells (in pET15b vector) with a six-His tag at the N-terminal. The His-tagged Bromodomain was extracted from E. coli cells using 0.1 mg/ml lysozyme and sonication. […]
All components were dissolved in buffer composition of 50 mM HEPES pH7.4, 150 mm NaCl and 0.5 mM CHAPS with final concentrations of Bromodomain 2, 75 nM, fluorescent ligand 5 nM. […] Fluorescence anisotropy was read in Envision (λex=485 nm, λEM=530 nm; Dichroic −505 nM). […]
All components were dissolved in buffer of composition 50 mM HEPES pH7.4, 150 mm NaCl and 0.5 mM CHAPS with final concentrations of Bromodomains 3 75 nM, fluorescent ligand 5 nM. […] Fluorescence anisotropy was read in Envision (λex=485 nm, λEM=530 nm; Dichroic −505 nM). […]

[3] = system: W12 cells (episomal HPV16 genomes); test: Measurement of HPV infected cells: W12 cell viability; type: cell-based; conditions: Human papillomavirus 16, 48 h, 2 days
Experimental: (§9) Measurement of HPV Infected Cells The […] cell clone #20850, derived from a low grade cervical […] (Stanley et al., Int. J. Cancer. V. 43. p. 672-676. 1989), carries episomal HPV16 genomes, maintained at approximately 100 copies per cell. Epithelial cell line C33A, which is not infected with any HPV strain was used as a negative control cell to assess non-specific cytotoxicity. […] and C33A cells were cultured with the compound of Example 2 for 2 days and viable cell content monitored by assaying [ATP] at end of this period. Data was normalised to DMSO control treated cells on day 2.

C33A cells = test: Measurement of HPV infected cells: C33A negative control cell viability; type: cell-based; conditions: 2 days, [ATP] assay
Experimental: as §9

[4] = as above; type: cell-based; conditions: human, 3 μM, normalised to DMSO control, read-out: Viability at the maximal tested concentration
Experimental: as §9

T1 sequence (P25440 1-473): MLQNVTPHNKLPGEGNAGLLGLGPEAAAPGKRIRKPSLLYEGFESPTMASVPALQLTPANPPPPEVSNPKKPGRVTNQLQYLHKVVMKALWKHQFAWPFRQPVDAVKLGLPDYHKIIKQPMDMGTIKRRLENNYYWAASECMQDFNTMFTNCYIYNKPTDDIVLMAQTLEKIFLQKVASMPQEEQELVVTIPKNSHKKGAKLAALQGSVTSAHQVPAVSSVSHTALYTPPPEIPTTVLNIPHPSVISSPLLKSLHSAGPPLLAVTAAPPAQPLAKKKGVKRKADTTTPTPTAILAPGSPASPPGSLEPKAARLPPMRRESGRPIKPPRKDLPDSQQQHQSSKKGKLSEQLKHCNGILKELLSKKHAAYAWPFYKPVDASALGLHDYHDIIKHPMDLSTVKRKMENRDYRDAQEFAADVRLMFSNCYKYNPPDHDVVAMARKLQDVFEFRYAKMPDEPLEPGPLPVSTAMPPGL
T2 sequence (Q15059 1-435): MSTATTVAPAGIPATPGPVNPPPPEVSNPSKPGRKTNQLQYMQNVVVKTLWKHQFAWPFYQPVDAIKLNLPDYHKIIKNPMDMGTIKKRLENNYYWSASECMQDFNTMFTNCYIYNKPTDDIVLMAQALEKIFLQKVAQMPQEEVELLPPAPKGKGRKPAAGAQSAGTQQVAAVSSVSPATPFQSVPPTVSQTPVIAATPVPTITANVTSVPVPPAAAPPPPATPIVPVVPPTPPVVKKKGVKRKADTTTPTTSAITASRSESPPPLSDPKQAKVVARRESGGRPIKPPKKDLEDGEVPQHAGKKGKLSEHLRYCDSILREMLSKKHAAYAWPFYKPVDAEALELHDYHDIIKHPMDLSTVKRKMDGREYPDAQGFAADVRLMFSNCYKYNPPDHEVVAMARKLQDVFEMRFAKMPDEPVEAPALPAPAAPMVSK

Row | Structure (SMILES) | IC50 (Bromodomain BRD2) | IC50 (Bromodomain BRD3) | IC50 (Bromodomain BRD4) | IC50 [1] [nM] | pIC50 [2] | viability at 3 µM ([3]; 3 μM, normalised to DMSO control, read-out: Viability at the maximal tested concentration) [%] | IC50 ([3]; [ATP] assay, n=4, read-out: mean pIC50 value, W12 cell viability (converted)) [nM] | effect on C33A negative control cells (viability) (C33A cells) | viability at 2 days, 3 µM [4] [%]
1 | COCCn1cc(-c2ccc3c(c2)[C@H](Nc2cccc(Cl)c2)C[C@H](C)N3C(C)=O)cn1 [Example 7, 1-((2S,4R)-4-((3-chlorophenyl)amino)-6-(1-(2-methoxyethyl)-1H-pyrazol-4-yl)-2-methyl-3,4-dihydroquinolin-1(2H)-yl)ethanone] | 63.1 to 316 nM | 63.1 to 316 nM | 63.1 to 316 nM | 126 to 1000 |  |  |  |  | 
2 | COCCn1cc(-c2ccc3c(c2)[C@H](Nc2ccc(C#N)cn2)C[C@H](C)N3C(C)=O)nn1 [Example 3, 6-(((2S,4R)-1-acetyl-6-(1-(2-methoxyethyl)-1H-1,2,3-triazol-4-yl)-2-methyl-1,2,3,4-tetrahydroquinolin-4-yl)amino)nicotinonitrile] | 63.1 to 316 nM | 63.1 to 316 nM | 63.1 to 316 nM | 126 to 1000 |  |  |  |  | 
3 | COCCn1cc(-c2ccc3c(c2)[C@H](Nc2cnc(C)cn2)C[C@H](C)N3C(C)=O)cn1 [Example 8, 1-((2S,4R)-6-(1-(2-methoxyethyl)-1H-pyrazol-4-yl)-2-methyl-4-((5-methylpyrazin-2-yl)amino)-3,4-dihydroquinolin-1(2H)-yl)ethanone] | 63.1 to 316 nM | 63.1 to 316 nM | 63.1 to 316 nM | 126 to 1000 |  |  |  |  | 
4 | COCCn1ncc(-c2ccc3c(c2)[C@H](Nc2ccc(C#N)cn2)C[C@H](C)N3C(C)=O)n1 [Example 4, 6-(((2S,4R)-1-acetyl-6-(2-(2-methoxyethyl)-2H-1,2,3-triazol-4-yl)-2-methyl-1,2,3,4-tetrahydroquinolin-4-yl)amino)nicotinonitrile] | 63.1 to 316 nM | 63.1 to 316 nM | 63.1 to 316 nM | 126 to 1000 |  |  |  |  | 
5 | COCCn1cc(-c2ccc3c(c2)[C@H](NC(=O)OC(C)C)C[C@H](C)N3C(C)=O)cn1 [Example 1, 1-methylethyl ((2S,4R)-1-acetyl-2-methyl-6-{1-[2-(methyloxy)ethyl]-1H-pyrazol-4-yl}-1,2,3,4-tetrahydro-4-quinolinyl)carbamate] |  |  |  | 126 to 1000 | ≥ 6.5 |  |  |  | 
6 | COCCn1cc(-c2ccc3c(c2)[C@H](Nc2ccc(Cl)cn2)C[C@H](C)N3C(C)=O)cn1 [Example 5, 1-((2S,4R)-4-((5-chloropyridin-2-yl)amino)-6-(1-(2-methoxyethyl)-1H-pyrazol-4-yl)-2-methyl-3,4-dihydroquinolin-1(2H)-yl)ethanone] | 63.1 to 316 nM | 63.1 to 316 nM | 63.1 to 316 nM | 126 to 1000 |  |  |  |  | 
7 | COCCn1cc(-c2ccc3c(c2)[C@H](Nc2ccc(C)cn2)C[C@H](C)N3C(C)=O)cn1 [Example 6, 1-((2S,4R)-6-(1-(2-methoxyethyl)-1H-pyrazol-4-yl)-2-methyl-4-((5-methylpyridin-2-yl)amino)-3,4-dihydroquinolin-1(2H)-yl)ethanone] | 63.1 to 316 nM | 63.1 to 316 nM | 63.1 to 316 nM | 126 to 1000 |  |  |  |  | 
8 | COCCn1cc(-c2ccc3c(c2)[C@H](Nc2ccc(C#N)cn2)C[C@H](C)N3C(C)=O)cn1 [Example 2, 6-(((2S,4R)-1-acetyl-6-(1-(2-methoxyethyl)-1H-pyrazol-4-yl)-2-methyl-1,2,3,4-tetrahydroquinolin-4-yl)amino)nicotinonitrile] | 63.1 to 126 nM and 63.1 to 316 nM | 63.1 to 126 nM and 63.1 to 316 nM | 63.1 to 126 nM and 63.1 to 316 nM | 200 |  | 34.8 | 81.3 | limited effect | 73.5
